Assay results reported in the NIST ThermoML archive (doi:10.1016/j.jct.2016.12.023).
± gives the expanded uncertainty stated by the source.

Assay: mn = molality of the nth substance listed, in mol/kg
Conditions: 298.15 K, 101.33 kPa, Liquid, Vibrating tube method

OC[C@H]1O[C@@H]2O[C@H]3[C@H](O)[C@@H](O)[C@@H](O[C@H]4[C@H](O)[C@@H](O)[C@@H](O[C@H]5[C@H](O)[C@@H](O)[C@@H](O[C@H]6[C@H](O)[C@@H](O)[C@@H](O[C@H]7[C@H](O)[C@@H](O)[C@@H](O[C@H]1[C@H](O)[C@H]2O)O[C@@H]7CO)O[C@@H]6CO)O[C@@H]5CO)O[C@@H]4CO)O[C@@H]3CO [α-cyclodextrin] + O
Conditions	mass density [kg/m3]
m1 = 0.00975	1000.6 ± 2
m1 = 0.01763	1003.4 ± 2
m1 = 0.02931	1007.6 ± 2.1
m1 = 0.03389	1009.2 ± 2.1
m1 = 0.04348	1012.5 ± 2.2
m1 = 0.05233	1015.6 ± 2.3
m1 = 0.06207	1018.9 ± 2.4
m1 = 0.07117	1022 ± 2.5
m1 = 0.0783	1024.4 ± 2.5
m1 = 0.09004	1028.3 ± 2.7
m1 = 0.09733	1031 ± 2
m1 = 0.09764	1030.7 ± 2
m1 = 0.09915	1031.6 ± 2
m1 = 0.09944	1031.7 ± 2
m1 = 0.1001	1031.6 ± 2
